Laboratory results from BindingDB's records for patent US12384772 (Vivoryon Therapeutics, 2025).

Assays:
[1] = biological target: T1, Glutaminyl-peptide cyclotransferase (Homo sapiens, UniProt Q16769); assay: Inhibition Assay (pH 6)
Protocol: (§1) 10 mM compound stock solutions were prepared in DMSO. For IC50 determination compound stocks were serially diluted (1:3) in DMSO.All measurements were performed with an EnSpire Perkin Elmer multimode reader using glutaminyl-7-amino-4-methylcoumarin (H-Gin-AMC) as substrate and recombinant pyroglutamyl aminopeptidase (pGAP) as auxiliary enzyme. Reactions were carried out at ambient temperature in black 96-well half area microplates. Each sample consisted of 1 μl test compound solution or solvent (DMSO) and 49 μl QC appropriately diluted in assay buffer (50 mM Tris/HCl, pH 8.0 or 50 mM MES buffer, pH=6.0). After a 10 min preincubation at ambient temperature the enzyme reaction was started by adding 50 μl of Gln-AMC-substrate/pGAP mixture in assay buffer. Final substrate concentrations were 50 and 200 μM for measurement at pH 8.0 or 6.0, respectively. Release of flourogenic AMC were recorded at excitation/emission wavelengths of 380/460 nm. Initial velocity of the enzyme reaction was calculated by linear regression of the first 10 data points using the Enspire Manager software. Final evaluation and calculation of IC50s were performed using GraphPad Prism software.

[2] = biological target: T1, Glutaminyl-peptide cyclotransferase; assay: Inhibition Assay (pH 8.0)
Protocol: as §1

T1 sequence (Q16769 whole entry): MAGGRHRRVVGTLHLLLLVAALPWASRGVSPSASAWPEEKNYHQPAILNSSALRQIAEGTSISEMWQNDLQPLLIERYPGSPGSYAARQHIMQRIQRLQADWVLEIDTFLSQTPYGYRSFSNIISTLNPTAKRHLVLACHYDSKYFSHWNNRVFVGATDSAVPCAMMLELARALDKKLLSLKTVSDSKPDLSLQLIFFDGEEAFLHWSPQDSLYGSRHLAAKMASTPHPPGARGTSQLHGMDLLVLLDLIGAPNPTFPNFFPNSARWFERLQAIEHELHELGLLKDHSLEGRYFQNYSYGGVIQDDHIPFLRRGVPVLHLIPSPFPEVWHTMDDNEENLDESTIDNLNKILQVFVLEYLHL

Ki [1]: 8.05 µM
Ki [2]: 5.18 µM
Structure (SMILES): CS(=O)(=NCc1ccc2[nH]cnc2c1)c1ccc(F)cc1 (configuration not stated) [US12384772, Compound 1285]
